The record followed here is ChEMBL document CHEMBL1137435, “Synthesis and application of 2'-fluoro-substituted cap analogs” (Bioorg Med Chem Lett, 2007).

SMILES strings stand for the structures.

The assay can be described thus: Capping efficiency on mRNA after 2 hrs by gel shift assay. In general terms: In EMSA bound probe runs differently from free probe, usually more slowly.
As for `C[n+]1cn([C@@H]2O[C@H](COP(=O)([O-])OP(=O)([O-])OP(=O)(O)OC[C@@H]3O[C@H](n4c[n+](C)c5c(=O)[nH]c(N)nc54)[C@@H](F)[C@H]3O)[C@@H](O)[C@H]2O)c2nc(N)[nH]c(=O)c21`, the Activity was determined as 52%. For the molecule `C[n+]1cn([C@H]2O[C@@H](COP(=O)([O-])OP(=O)(O)OP(=O)(O)OC[C@H]3O[C@@H](n4cnc5c(=O)[nH]c(N)nc54)[C@H](O)[C@@H]3O)[C@H](O)[C@@H]2F)c2nc(N)[nH]c(=O)c21`, the Activity was found to be 70%. As for `C[n+]1cn([C@H]2O[C@@H](COP(=O)([O-])OP(=O)(O)OP(=O)(O)OC[C@H]3O[C@@H](n4cnc5c(=O)[nH]c(N)nc54)[C@H](O)[C@@H]3O)[C@H](O)[C@@H]2O)c2nc(N)[nH]c(=O)c21`, the Activity came out at 61%.
